Assay results taken from PubChem BioAssay (NCI).
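These data come from cells grown in 96-well plates and exposed to compound for 48 hours at five concentrations. TGI marks complete inhibition of growth.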

Columns and labels:
Assay in all cases: NCI anticancer screen, dose series, 48 h
A549 NSCLC = test system: A549 NSCLC
EKVX NSCLC = test system: EKVX NSCLC
HOP-92 NSCLC = test system: HOP-92 NSCLC
HS 578T breast = test system: HS 578T breast
IGROV1 ovarian = test system: IGROV1 ovarian
MCF7 breast = test system: MCF7 breast
NCI/ADR-RES ovarian = test system: NCI/ADR-RES ovarian
OVCAR-8 ovarian = test system: OVCAR-8 ovarian
RXF 393 renal = test system: RXF 393 renal
SF-295 CNS = test system: SF-295 CNS
SF-539 CNS = test system: SF-539 CNS
SK-MEL-2 melanoma = test system: SK-MEL-2 melanoma
SK-MEL-5 melanoma = test system: SK-MEL-5 melanoma
SN12C renal = test system: SN12C renal
SNB-19 CNS = test system: SNB-19 CNS
SNB-75 CNS = test system: SNB-75 CNS
SR leukemia = test system: SR leukemia
T-47D breast = test system: T-47D breast
UACC-257 melanoma = test system: UACC-257 melanoma
UO-31 renal = test system: UO-31 renal

Structure (SMILES) | TGI (A549 NSCLC) [µM] | TGI (EKVX NSCLC) [µM] | TGI (HOP-92 NSCLC) [µM] | TGI (HS 578T breast) [µM] | TGI (IGROV1 ovarian) [µM] | TGI (MCF7 breast) [µM] | TGI (NCI/ADR-RES ovarian) [µM] | TGI (OVCAR-8 ovarian) [µM] | TGI (RXF 393 renal) [µM] | TGI (SF-295 CNS) [µM] | TGI (SF-539 CNS) [µM] | TGI (SK-MEL-2 melanoma) [µM] | TGI (SK-MEL-5 melanoma) [µM] | TGI (SN12C renal) [µM] | TGI (SNB-19 CNS) [µM] | TGI (SNB-75 CNS) [µM] | TGI (SR leukemia) [µM] | TGI (T-47D breast) [µM] | TGI (UACC-257 melanoma) [µM] | TGI (UO-31 renal) [µM]
CCOC(=O)CC[C@H](NC(=O)c1ccc(CNc2nc3cc(C(F)(F)F)ccc3nc2C(=O)OCC)cc1)C(=O)OCC | > 100 | 42.7 | 48.9 | 19.7 | > 53.4 | > 51.9 | > 100 | > 100 | > 100 | 24.7 | 17.3 | > 94.1 | > 66.6 | > 100 | 25.4 | 41.3 | > 100 | 60.8 | > 100 | 70.3
Cc1c2ccccc2c(CSC(=N)N)c2ccccc12 | 1.62 | 1.33 | 1.43 | 0.475 | 2.36 | 0.518 | 0.924 | 6.43 | 0.161 | 2.29 | 0.419 | 0.375 | 0.331 | 0.903 | 1.39 | 0.445 | 0.0673 | 5.32 | 0.406 | 0.511
CSC1=NC(=O)CCN1C1OCC(OC(C)=O)C(OC(C)=O)C1OC(C)=O (stereo not given) | > 31.6 | > 31.6 | 27 | 22.5 | 23 | > 100 | > 31.6 | > 31.6 | 23.6 | > 31.6 | 28.7 | 22.9 | 17.9 | > 31.6 | > 31.6 | 22.7 | > 31.6 | > 31.6 | > 31.6 | 57.8
Cc1cccc(C)c1NC(=O)C(=O)C(c1ccccc1Cl)S(=O)(=O)Cc1ccccc1Cl (stereo not given) | > 100 | > 100 | 44 | > 100 | > 100 | > 100 | > 100 | > 69.6 | 80.2 | > 75.2 | 39.2 | > 100 | > 100 | > 100 | > 92 | > 44.1 | > 100 | > 100 | > 100 | > 100
CC(=O)NC1C(O)C(O)C(CO)OC1n1nc(SCc2ccccc2)c(=O)[nH]c1=O (stereo not given) | > 100 | > 100 | > 100 | > 100 | > 100 | > 100 | > 100 | > 100 | > 100 | > 100 | > 100 | > 100 | > 100 | > 100 | > 100 | > 100 | > 100 | > 100 | > 100 | > 100
CCOC(=O)c1ccc(OCc2nc3cc(C(F)(F)F)ccc3nc2-c2ccccc2)cc1 | > 100 | > 100 | > 100 | > 100 | > 100 | > 100 | > 100 | > 100 | > 100 | > 100 | > 100 | > 100 | > 100 | > 100 | > 100 | > 100 | > 100 | > 100 | > 100 | > 100
CC(=O)N(C(=O)CC(=O)NNCc1ccccc1Cl)c1ccc(Cl)cc1 | > 10 | > 10 | > 10 | > 10 | > 10 | > 10 | > 10 | > 10 | > 10 | > 10 | > 10 | > 10 | > 10 | > 10 | > 10 | > 10 | > 10 | > 10 | > 10 | > 10
O=c1oc2cc(O)ccc2c(O)c1C(c1ccc2ccccc2c1)c1c(O)c2ccc(O)cc2oc1=O | > 100 | > 100 | > 100 | 59.7 | > 100 | > 100 | > 100 | > 100 | > 100 | > 100 | > 100 | > 100 | > 100 | > 100 | 49.3 | 37.7 | 67.1 | > 100 | > 100 | 31.7
CCCCCCCCCCCCCCCCCCNc1ccn(C2OC(COP(=O)(O)OCC(COP(=O)(O)OCC3OC(n4cc(C)c(=O)[nH]c4=O)CC3N=[N+]=[N-])OCCCCCCCCCCCCCCCCCC)C(O)C2O)c(=O)n1 (stereo not given) | > 100 | > 100 | > 100 | > 100 | > 100 | > 100 | > 100 | > 100 | > 100 | > 100 | 88.7 | > 100 | > 100 | > 100 | 50.5 | > 100 | > 100 | > 100 | > 100 | 33.1
